Source: ChEMBL document CHEMBL3045645, “Organophosphorus derivatives containing isatin-3-hydrazones as chemotherapeutants against fungal pathogens of sugarcane” (2008)

Columns and labels:
Type in all cases: functional
Conditions in all cases: 168 h, read-out: GI
[1] = tested on: Colletotrichum falcatum; assay: Antifungal activity against Glomerella tucumanensis assessed as mycelial growth inhibition at 1000 ppm at 28 +/-2 degC after 7 days by food poison technique
[2] = tested on: Fusarium oxysporum; assay: Antifungal activity against Fusarium oxysporum assessed as mycelial growth inhibition at 100 ppm at 28 +/-2 degC after 7 days by food poison technique
[3] = tested on: Curvularia pallescens; assay: Antifungal activity against Cochliobolus pallescens assessed as mycelial growth inhibition at 10 ppm at 28 +/-2 degC after 7 days by food poison technique
[4] = tested on: Curvularia pallescens; assay: Antifungal activity against Cochliobolus pallescens assessed as mycelial growth inhibition at 1000 ppm at 28 +/-2 degC after 7 days by food poison technique
[5] = tested on: Fusarium oxysporum; assay: Antifungal activity against Fusarium oxysporum assessed as mycelial growth inhibition at 1000 ppm at 28 +/-2 degC after 7 days by food poison technique
[6] = tested on: Fusarium oxysporum; assay: Antifungal activity against Fusarium oxysporum assessed as mycelial growth inhibition at 10 ppm at 28 +/-2 degC after 7 days by food poison technique
[7] = tested on: Curvularia pallescens; assay: Antifungal activity against Cochliobolus pallescens assessed as mycelial growth inhibition at 100 ppm at 28 +/-2 degC after 7 days by food poison technique
[8] = tested on: Colletotrichum falcatum; assay: Antifungal activity against Glomerella tucumanensis assessed as mycelial growth inhibition at 100 ppm at 28 +/-2 degC after 7 days by food poison technique
[9] = tested on: Colletotrichum falcatum; assay: Antifungal activity against Glomerella tucumanensis assessed as mycelial growth inhibition at 10 ppm at 28 +/-2 degC after 7 days by food poison technique

CCOP(=O)(OCC)O/C(=N\N=C1/C(=O)Nc2ccccc21)c1ccccc1
inhibition of growth at 1000 ppm [1]: 60.8% | inhibition of growth at 100 ppm [2]: 50.4% | inhibition of growth at 10 ppm [3]: 40.4% | inhibition of growth at 1000 ppm [4]: 59.8% | inhibition of growth at 1000 ppm [5]: 61.8% | inhibition of growth at 10 ppm [6]: 41.2% | inhibition of growth at 100 ppm [7]: 49.2% | inhibition of growth at 100 ppm [8]: 49.4% | inhibition of growth at 10 ppm [9]: 40.3%

CCOP(=O)(OCC)O/C(=N\N=C1/C(=O)Nc2ccccc21)c1ccc(Cl)cc1
inhibition of growth at 1000 ppm [1]: 69.6% | inhibition of growth at 100 ppm [2]: 67.8% | inhibition of growth at 10 ppm [3]: 51.6% | inhibition of growth at 1000 ppm [4]: 71.2% | inhibition of growth at 1000 ppm [5]: 72.6% | inhibition of growth at 10 ppm [6]: 54.2% | inhibition of growth at 100 ppm [7]: 62.4% | inhibition of growth at 100 ppm [8]: 64.2% | inhibition of growth at 10 ppm [9]: 56.8%

CCOP(=O)(OCC)O/C(=N\N=C1/C(=O)Nc2ccccc21)c1ccc([N+](=O)[O-])cc1
inhibition of growth at 1000 ppm [1]: 54.2% | inhibition of growth at 100 ppm [2]: 39.6% | inhibition of growth at 10 ppm [3]: 26.8% | inhibition of growth at 1000 ppm [4]: 51.8% | inhibition of growth at 1000 ppm [5]: 56.2% | inhibition of growth at 10 ppm [6]: 29.4% | inhibition of growth at 100 ppm [7]: 38.6% | inhibition of growth at 100 ppm [8]: 40.1% | inhibition of growth at 10 ppm [9]: 30.2%

CCOP(=S)(OCC)O/C(=N\N=C1/C(=O)Nc2ccccc21)c1ccccc1
inhibition of growth at 1000 ppm [1]: 70.8% | inhibition of growth at 100 ppm [2]: 69.2% | inhibition of growth at 10 ppm [3]: 55.7% | inhibition of growth at 1000 ppm [4]: 73.5% | inhibition of growth at 1000 ppm [5]: 74.2% | inhibition of growth at 10 ppm [6]: 55.2% | inhibition of growth at 100 ppm [7]: 65.8% | inhibition of growth at 100 ppm [8]: 65.1% | inhibition of growth at 10 ppm [9]: 58.2%

CCOP(=S)(OCC)O/C(=N\N=C1/C(=O)Nc2ccccc21)c1ccc(Cl)cc1
inhibition of growth at 1000 ppm [1]: 88.6% | inhibition of growth at 100 ppm [2]: 78.2% | inhibition of growth at 10 ppm [3]: 61.6% | inhibition of growth at 1000 ppm [4]: 85.8% | inhibition of growth at 1000 ppm [5]: 85.8% | inhibition of growth at 10 ppm [6]: 68.6% | inhibition of growth at 100 ppm [7]: 71.6% | inhibition of growth at 100 ppm [8]: 72.4% | inhibition of growth at 10 ppm [9]: 60.5%

CCOP(=S)(OCC)O/C(=N\N=C1/C(=O)Nc2ccccc21)c1ccc([N+](=O)[O-])cc1
inhibition of growth at 1000 ppm [1]: 58.2% | inhibition of growth at 100 ppm [2]: 47.2% | inhibition of growth at 10 ppm [3]: 36.2% | inhibition of growth at 1000 ppm [4]: 57.2% | inhibition of growth at 1000 ppm [5]: 58.2% | inhibition of growth at 10 ppm [6]: 40% | inhibition of growth at 100 ppm [7]: 45.6% | inhibition of growth at 100 ppm [8]: 46.2% | inhibition of growth at 10 ppm [9]: 39.8%

CCOP(=O)(OCC)O/C(=N\N=C1/C(=O)Nc2ccccc21)c1ccc(OP(=O)(OCC)OCC)cc1
inhibition of growth at 1000 ppm [1]: 69.2% | inhibition of growth at 100 ppm [2]: 58% | inhibition of growth at 10 ppm [3]: 51.8% | inhibition of growth at 1000 ppm [4]: 67.8% | inhibition of growth at 1000 ppm [5]: 71.5% | inhibition of growth at 10 ppm [6]: 52.6% | inhibition of growth at 100 ppm [7]: 51.7% | inhibition of growth at 100 ppm [8]: 62.4% | inhibition of growth at 10 ppm [9]: 52.3%

CCOP(=S)(OCC)O/C(=N\N=C1/C(=O)Nc2ccccc21)c1ccc(OP(=S)(OCC)OCC)cc1
inhibition of growth at 1000 ppm [1]: 87% | inhibition of growth at 100 ppm [2]: 68.2% | inhibition of growth at 10 ppm [3]: 56% | inhibition of growth at 1000 ppm [4]: 81.4% | inhibition of growth at 1000 ppm [5]: 82.4% | inhibition of growth at 10 ppm [6]: 57.1% | inhibition of growth at 100 ppm [7]: 66.2% | inhibition of growth at 100 ppm [8]: 68.2% | inhibition of growth at 10 ppm [9]: 58.2%

CCOP(=O)(OCC)O/C(=N\N=C1/C(=O)Nc2ccccc21)c1ccccc1P(=O)(OCC)OCC
inhibition of growth at 1000 ppm [1]: 68.8% | inhibition of growth at 100 ppm [2]: 56.2% | inhibition of growth at 10 ppm [3]: 47.7% | inhibition of growth at 1000 ppm [4]: 65.6% | inhibition of growth at 1000 ppm [5]: 66.5% | inhibition of growth at 10 ppm [6]: 49.8% | inhibition of growth at 100 ppm [7]: 56.7% | inhibition of growth at 100 ppm [8]: 59.9% | inhibition of growth at 10 ppm [9]: 51.5%

CCOP(=S)(OCC)O/C(=N\N=C1/C(=O)Nc2ccccc21)c1ccccc1P(=S)(OCC)OCC
inhibition of growth at 1000 ppm [1]: 86.6% | inhibition of growth at 100 ppm [2]: 66.5% | inhibition of growth at 10 ppm [3]: 54.2% | inhibition of growth at 1000 ppm [4]: 80.5% | inhibition of growth at 1000 ppm [5]: 82.8% | inhibition of growth at 10 ppm [6]: 55.2% | inhibition of growth at 100 ppm [7]: 64.2% | inhibition of growth at 100 ppm [8]: 67.2% | inhibition of growth at 10 ppm [9]: 57.6%
